In publication PMC3871529, “At a Supra-Physiological Concentration, Human Sexual Hormones Act as Quorum-Sensing Inhibitors” (PLoS ONE, 2013):

Assays:
LasR = biological target: T1, LasR (Pseudomonas aeruginosa, UniProt P25084); assay: E. coli bioindicator expressing LasR (pAL105, lasI::luxCDABE luminescence); assay type: cell-based; settings: OC12-HSL 100 µM; QSIs at 0.1 mg/ml, naringenin and naringin at 0.5 mg/ml
T1 construct: expressed in transfected cells; host or cells: Escherichia coli JLD271 carrying pAL105 (pSB401-derivative, lasR+ lasI::luxCDABE)
T1 sequence (P25084 whole entry): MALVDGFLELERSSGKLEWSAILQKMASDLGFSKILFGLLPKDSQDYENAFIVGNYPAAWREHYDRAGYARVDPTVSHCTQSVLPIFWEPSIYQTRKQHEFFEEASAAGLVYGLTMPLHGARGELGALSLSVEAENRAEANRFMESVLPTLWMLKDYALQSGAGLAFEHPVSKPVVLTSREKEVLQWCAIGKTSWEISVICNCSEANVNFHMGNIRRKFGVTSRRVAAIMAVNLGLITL
Method: (§1) We determined whether the AHL-binding transcriptional factors LasR and RhlR were impaired in their capacity to activate expression of the QS-regulated genes in the presence of various QSIs. This was achieved by using two E. coli bioindicator strains expressing either LasR or RhlR proteins and harboring an appropriate reporter lux operon for measuring their transcriptional activity in the presence of OC12-HSL at 100 µM and C4-HSL at 10 µM, respectively. Adding C4-HSL to the pAL101-bioindicator or OC12-HSL to the pAL105-bioindicator induced the expression of the reporter lux operon and the consequent production of luminescence. In contrast, only background levels of luminescence were detected in control strains harboring the plasmids pAL102 or pAL106, which lacks the rhlR or lasR gene, respectively.
(§2) Figure 7 QSIs modulated activity of the AHL-sensors in P. aeruginosa. Luminescence of the reporting operon lux, expressed in relative light units (RLU/OD600), was measured in E. coli bioindicator strains harboring the LasR (A) and RhlR (B) AHL-sensing systems of P. aeruginosa in the presence of […]. The QSIs estradiol, estrone, estriol and hordenine were added at 0.1 mg/ml, while naringenin and naringin, added at 0.5 mg/ml, were used as QSI-reference and non-QSI reference, respectively. Each test (n = 6) was compared with the DMSO-condition using Student's t test. Asterisks indicate statistically different data (p value of ≤0.01).
(§3) Escherichia coli JLD271 biosensor strains harboring LasR- and RhlR-based plasmids pAL105 and pAL101 and control plasmids pAL106 (LasR^-) and pAL102 (RhlR^−) (Table 1) were prepared according to Vandeputte et al.. Briefly, these strains were grown in LB medium supplemented with tetracycline (10 µg/ml) and chloramphenicol (25 µg/ml) for 24 h. Then 50-µl portions of the cultures were subcultured in 1 ml of LB medium (the starting OD600 ranged between 0.02 and 0.025 corresponding to 5.10^6 CFU) supplemented with 10 µl of DMSO (1% [vol/vol] final), 10 µl of naringenin or naringin dissolved in DMSO (2 mM, final concentration), or 10 µl of the molecule to be tested. To induce the expression of the lux operon, 0, 1, 10 or […] of C4-HSL was added to pAL101 and pAL102, while OC12-HSL was added to pAL105 and pAL106. After incubation for 2 h at 37°C with agitation (175 rpm), 200 µl of culture was transferred to 96-well OptiPlate-96 F plates from Perkin-Elmer, and the luminescence of each sample was measured by using a TopCount NXT device from Perkin-Elmer. The LasR(pAL106) and RhlR(pAL102) biosensors were used for background subtraction, and the OD600 values were measured to account for the differences in cell density. All experiments were performed in six replicates. The statistical significance of each test was evaluated by conducting Student's t tests using the GraphPad Prism software, and p values ≤0.05 were considered significant. Naringenin (4′,5,7-trihydroxyflavanone), naringin (4′,5,7-trihydroxyflavanone 7-rhamnoglucoside), the AHLs OC12-HSL and C4-HSL were purchased from Sigma-Aldrich and dissolved freshly in 100% DMSO before use. Tested QSIs were dissolved in 100% DMSO before use.

RhlR = biological target: T2, RhlR (Pseudomonas aeruginosa, UniProt P54292); assay: E. coli bioindicator expressing RhlR (pAL101, rhlI::luxCDABE luminescence); assay type: cell-based; settings: C4-HSL 10 µM; QSIs at 0.1 mg/ml, naringenin and naringin at 0.5 mg/ml
T2 construct: expressed in transfected cells; host or cells: Escherichia coli JLD271 carrying pAL101 (pSB401-derivative, rhlR+ rhlI::luxCDABE)
T2 sequence (P54292 whole entry): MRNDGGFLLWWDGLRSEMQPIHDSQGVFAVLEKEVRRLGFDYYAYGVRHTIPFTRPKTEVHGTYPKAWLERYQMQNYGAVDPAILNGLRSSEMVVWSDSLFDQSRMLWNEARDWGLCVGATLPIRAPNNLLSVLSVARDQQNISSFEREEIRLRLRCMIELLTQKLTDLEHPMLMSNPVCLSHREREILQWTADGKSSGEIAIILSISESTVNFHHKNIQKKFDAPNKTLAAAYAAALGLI
Method: as §1, §2, §3

| SMILES | effect on LasR functionality (lux luminescence) (LasR) | effect on RhlR functionality (lux luminescence) (RhlR) |
| --- | --- | --- |
| O=C1CC(c2ccc(O)cc2)Oc2cc(O)cc(O)c21 (stereo not shown) [naringenin, 4′,5,7-trihydroxyflavanone] | less luminescence | less luminescence |
| C[C@@H]1O[C@@H](O[C@H]2[C@H](Oc3cc(O)c4c(c3)O[C@H](c3ccc(O)cc3)CC4=O)O[C@H](CO)[C@@H](O)[C@@H]2O)[C@H](O)[C@H](O)[C@H]1O [naringin, 4′,5,7-trihydroxyflavanone 7-rhamnoglucoside] | no effect | no effect |
